Assay results as given in ChEMBL document CHEMBL4411284, “Discovery of novel quaternary ammonium compounds based on quinuclidine-3-ol as new potential antimicrobial candidates” (Eur J Med Chem, 2019).
Activity calls are given as the source filed them. No cut-off for these calls is given here.

Tests used:
Staphylococcus aureus [1] = test: Bactericidal activity against methicillin-resistant Staphylococcus aureus clinical isolate preincubated for 24 to 48 hrs followed by replating on MHA plates and measured after 18 hrs by broth microdilution assay; type: functional
Staphylococcus aureus [2] = test: Induction of morphological changes in Staphylococcus aureus ATCC 29213 assessed as cell wall damage at 8 times MIC after 1 hr by atomic force microscopic analysis; type: functional, organism-based
Acinetobacter baumannii [3] = test: Bactericidal activity against Acinetobacter baumannii ATCC 19606 preincubated for 24 to 48 hrs followed by replating on MHA plates and measured after 18 hrs by broth microdilution assay; type: functional; conditions: ATCC 19606 = CIP 70.34 = JCM 6841
Staphylococcus aureus [4] = test: Growth inhibition in Staphylococcus aureus ATCC 29213 at 1/4 to 1/2 times MIC after 6 hrs; type: functional, organism-based
Staphylococcus aureus [5] = test: Antimicrobial activity against Staphylococcus aureus ATCC 29213 after 24 to 48 hrs by broth microdilution assay; type: functional
Listeria monocytogenes [6] = test: Bactericidal activity against Listeria monocytogenes ATCC 19111 (1/2a) preincubated for 24 to 48 hrs followed by replating on MHA plates and measured after 18 hrs by broth microdilution assay; type: functional
Staphylococcus aureus [7] = test: Antibiofilm activity against Staphylococcus aureus ATCC 29213 after 3 days by crystal violet staining based assay; type: functional, organism-based
Staphylococcus aureus [8] = test: Antimicrobial activity against Staphylococcus aureus ATCC 29213 assessed as bacterial membrane disruption by measuring dead cells at 4 times MIC after 15 mins by thiazole orange/propidium iodide staining based flow cytometric analysis (reference value: 3.22%); type: functional
Klebsiella pneumoniae [9] = test: Bactericidal activity against Klebsiella pneumoniae ATCC 13883 preincubated for 24 to 48 hrs followed by replating on MHA plates and measured after 18 hrs by broth microdilution assay; type: functional
Staphylococcus aureus [10] = test: Antimicrobial activity against methicillin-resistant Staphylococcus aureus clinical isolate after 24 to 48 hrs by broth microdilution assay; type: functional
Salmonella typhimurium [11] = test: Bactericidal activity against Salmonella typhimurium WDCM 00031 preincubated for 24 to 48 hrs followed by replating on MHA plates and measured after 18 hrs by broth microdilution assay; type: functional, Salmonella enterica subsp. enterica serovar Typhimurium; conditions: Salmonella enterica
Escherichia coli [12] = test: Bactericidal activity against Escherichia coli clinical isolate preincubated for 24 to 48 hrs followed by replating on MHA plates and measured after 18 hrs by broth microdilution assay; type: functional
Escherichia coli [13] = test: Bactericidal activity against Escherichia coli ATCC 25922 preincubated for 24 to 48 hrs followed by replating on MHA plates and measured after 18 hrs by broth microdilution assay; type: functional
Escherichia coli [14] = test: Antimicrobial activity against Escherichia coli clinical isolate after 24 to 48 hrs by broth microdilution assay; type: functional
Aspergillus niger = test: Antifungal activity against Aspergillus niger after 24 to 48 hrs by broth microdilution assay; type: functional
Acinetobacter baumannii [15] = test: Antimicrobial activity against Acinetobacter baumannii ATCC 19606 after 24 to 48 hrs by broth microdilution assay; type: functional; conditions: ATCC 19606 = CIP 70.34 = JCM 6841
HEK293 = test: Cytotoxicity against HEK293 cells assessed as reduction in cell viability after 48 hrs by MTS assay; type: cell-based; conditions: Homo sapiens, HEK293, 48 h
Listeria monocytogenes [16] = test: Antimicrobial activity against Listeria monocytogenes ATCC 19111 (1/2a) after 24 to 48 hrs by broth microdilution assay; type: functional
Staphylococcus aureus [17] = test: Induction of morphological changes in Staphylococcus aureus ATCC 29213 assessed as cell wall damage at MIC after 3 hrs by atomic force microscopic analysis; type: functional, organism-based
Candida albicans = test: Antifungal activity against Candida albicans ATCC 90029 after 24 to 48 hrs by broth microdilution assay; type: functional
Penicillium citrinum = test: Antifungal activity against Penicillium citrinum after 24 to 48 hrs by broth microdilution assay; type: functional
Streptococcus pyogenes [18] = test: Bactericidal activity against Streptococcus pyogenes ATCC 19615 preincubated for 24 to 48 hrs followed by replating on MHA plates and measured after 18 hrs by broth microdilution assay; type: functional
Staphylococcus aureus [19] = test: Antimicrobial activity against Staphylococcus aureus ATCC 29213 assessed as bacterial membrane disruption by measuring dead cells at MIC after 15 mins by thiazole orange/propidium iodide staining based flow cytometric analysis (reference value: 3.22%); type: functional
Staphylococcus aureus [20] = test: Antimicrobial activity against Staphylococcus aureus ATCC 29213 assessed as bacterial membrane disruption by measuring live cells at MIC after 15 mins by thiazole orange/propidium iodide staining based flow cytometric analysis (reference value: 88.47%); type: functional
Staphylococcus aureus [21] = test: Antibiofilm activity against Staphylococcus aureus ATCC 29213 at 1/32 to 1/2 times MIC after 3 days by crystal violet staining based assay relative to control; type: functional
Salmonella typhimurium [22] = test: Antimicrobial activity against Salmonella typhimurium WDCM 00031 after 24 to 48 hrs by broth microdilution assay; type: functional, Salmonella enterica subsp. enterica serovar Typhimurium; conditions: Salmonella enterica
Acinetobacter baumannii [23] = test: Bactericidal activity against Acinetobacter baumannii clinical isolate preincubated for 24 to 48 hrs followed by replating on MHA plates and measured after 18 hrs by broth microdilution assay; type: functional
Enterococcus faecalis [24] = test: Antimicrobial activity against Enterococcus faecalis ATCC 29212 after 24 to 48 hrs by broth microdilution assay; type: functional
Staphylococcus aureus [25] = test: Antimicrobial activity against Staphylococcus aureus ATCC 29213 assessed as bacterial membrane disruption by measuring live cells at 4 times MIC after 15 mins by thiazole orange/propidium iodide staining based flow cytometric analysis (reference value: 88.47%); type: functional
Staphylococcus aureus [26] = test: Induction of morphological changes in Staphylococcus aureus ATCC 29213 assessed as cell wall damage at MIC after 1 hr by atomic force microscopic analysis; type: functional, organism-based
Staphylococcus aureus [27] = test: Antimicrobial activity against Staphylococcus aureus ATCC 29213 assessed as live cells at MIC by fluorescence microscopic analysis; type: functional, organism-based
TERT-RPE1 = test: Cytotoxicity against human RPE1 cells assessed as reduction in cell viability after 48 hrs by MTS assay; type: cell-based; conditions: RPE-1, 48 h
Streptococcus pyogenes [28] = test: Antimicrobial activity against Streptococcus pyogenes ATCC 19615 after 24 to 48 hrs by broth microdilution assay; type: functional
Pseudomonas aeruginosa [29] = test: Bactericidal activity against Pseudomonas aeruginosa ATCC 27853 preincubated for 24 to 48 hrs followed by replating on MHA plates and measured after 18 hrs by broth microdilution assay; type: functional
Escherichia coli [30] = test: Antimicrobial activity against Escherichia coli ATCC 25922 after 24 to 48 hrs by broth microdilution assay; type: functional
Pseudomonas aeruginosa [31] = test: Antimicrobial activity against Pseudomonas aeruginosa ATCC 27853 after 24 to 48 hrs by broth microdilution assay; type: functional
Staphylococcus aureus [32] = test: Bactericidal activity against Staphylococcus aureus ATCC 29213 preincubated for 24 to 48 hrs followed by replating on MHA plates and measured after 18 hrs by broth microdilution assay; type: functional
Klebsiella pneumoniae [33] = test: Bactericidal activity against Klebsiella pneumoniae clinical isolate preincubated for 24 to 48 hrs followed by replating on MHA plates and measured after 18 hrs by broth microdilution assay; type: functional
Klebsiella pneumoniae [34] = test: Antimicrobial activity against Klebsiella pneumoniae clinical isolate after 24 to 48 hrs by broth microdilution assay; type: functional
Enterococcus faecalis [35] = test: Bactericidal activity against Enterococcus faecalis ATCC 29212 preincubated for 24 to 48 hrs followed by replating on MHA plates and measured after 18 hrs by broth microdilution assay; type: functional
Staphylococcus aureus [36] = test: Induction of membrane lysis in Staphylococcus aureus ATCC 29213 at 0.5 to 1 times MIC by spectroflurometric analysis based propidium iodide uptake assay; type: functional, organism-based
Staphylococcus aureus [37] = test: Antimicrobial activity against Staphylococcus aureus ATCC 29213 assessed as dead cells at 4 times MIC by fluorescence microscopic analysis; type: functional, organism-based
Staphylococcus aureus [38] = test: Induction of membrane lysis in Staphylococcus aureus ATCC 29213 at 4 to 8 times MIC by spectroflurometric analysis based propidium iodide uptake assay; type: functional, organism-based
Klebsiella pneumoniae [39] = test: Antimicrobial activity against Klebsiella pneumoniae ATCC 13883 after 24 to 48 hrs by broth microdilution assay; type: functional
Acinetobacter baumannii [40] = test: Antimicrobial activity against Acinetobacter baumannii clinical isolate after 24 to 48 hrs by broth microdilution assay; type: functional

SMILES: CCCCCCCCCCCCCC[N+]12CCC(CC1)C(O)C2.[Br-] (stereo not given)
- MBC (Staphylococcus aureus [1]): 3.9 µg/mL
- Activity (Staphylococcus aureus [2]): Active
- MBC (Acinetobacter baumannii [3]): 15.6 µg/mL
- growth inhibition (GI) (Staphylococcus aureus [4]): Active
- MIC (Staphylococcus aureus [5]): 0.97 µg/mL
- MBC (Listeria monocytogenes [6]): 3.9 µg/mL
- Activity (Staphylococcus aureus [7]): Dose-dependent effect
- Activity (Staphylococcus aureus [8]): 55.69%
- MBC (Klebsiella pneumoniae [9]): 15.6 µg/mL
- MIC (Staphylococcus aureus [10]): 3.9 µg/mL
- MBC (Salmonella typhimurium [11]): 31.2 µg/mL
- MBC (Escherichia coli [12]): 15.6 µg/mL
- MBC (Escherichia coli [13]): 7.8 µg/mL
- MIC (Escherichia coli [14]): 15.6 µg/mL
- MIC50 (Aspergillus niger): 0.48 µg/mL
- MIC90 (Aspergillus niger): 0.97 µg/mL
- MIC (Acinetobacter baumannii [15]): 15.6 µg/mL
- IC50 (HEK293): 1 µg/mL
- MIC (Listeria monocytogenes [16]): 3.9 µg/mL
- Activity (Staphylococcus aureus [17]): Active
- MIC50 (Candida albicans): 0.06 µg/mL
- MIC90 (Candida albicans): 0.12 µg/mL
- MIC50 (Penicillium citrinum): 1.95 µg/mL
- MIC90 (Penicillium citrinum): 3.9 µg/mL
- MBC (Streptococcus pyogenes [18]): 0.06 µg/mL
- Activity (Staphylococcus aureus [19]): 14.54%
- Activity (Staphylococcus aureus [20]): 66.27%
- Activity (Staphylococcus aureus [21]): 2.3 - 84%
- MIC (Salmonella typhimurium [22]): 31.2 µg/mL
- MBC (Acinetobacter baumannii [23]): 15.6 µg/mL
- MIC (Enterococcus faecalis [24]): 0.97 µg/mL
- Activity (Staphylococcus aureus [25]): 23.66%
- Activity (Staphylococcus aureus [26]): inactive
- Activity (Staphylococcus aureus [27]): Active
- IC50 (TERT-RPE1): 15 µg/mL
- MIC (Streptococcus pyogenes [28]): 0.06 µg/mL
- MBC (Pseudomonas aeruginosa [29]): 31.2 µg/mL
- MIC (Escherichia coli [30]): 3.9 µg/mL
- MIC (Pseudomonas aeruginosa [31]): 31.2 µg/mL
- MBC (Staphylococcus aureus [32]): 0.97 µg/mL
- MBC (Klebsiella pneumoniae [33]): 15.6 µg/mL
- MIC (Klebsiella pneumoniae [34]): 15.6 µg/mL
- MBC (Enterococcus faecalis [35]): 0.97 µg/mL
- Activity (Staphylococcus aureus [36]): inactive
- Activity (Staphylococcus aureus [37]): Active
- Activity (Staphylococcus aureus [38]): Active
- MIC (Klebsiella pneumoniae [39]): 15.6 µg/mL
- MIC (Acinetobacter baumannii [40]): 7.8 µg/mL

SMILES: CCCCCCCCCC[N+]12CCC(CC1)C(O)C2.[Br-] (stereo not given)
- MBC (Staphylococcus aureus [1]): 500 µg/mL
- MBC (Acinetobacter baumannii [3]): 1000 µg/mL
- MIC (Staphylococcus aureus [5]): 125 µg/mL
- MBC (Listeria monocytogenes [6]): 250 µg/mL
- MBC (Klebsiella pneumoniae [9]): 1000 µg/mL
- MIC (Staphylococcus aureus [10]): 500 µg/mL
- MBC (Salmonella typhimurium [11]): 1000 µg/mL
- MBC (Escherichia coli [12]): 500 µg/mL
- MBC (Escherichia coli [13]): 250 µg/mL
- MIC (Escherichia coli [14]): 500 µg/mL
- MIC50 (Aspergillus niger): 125 µg/mL
- MIC90 (Aspergillus niger): 250 µg/mL
- MIC (Acinetobacter baumannii [15]): 1000 µg/mL
- MIC (Listeria monocytogenes [16]): 250 µg/mL
- MIC50 (Candida albicans): 31.2 µg/mL
- MIC90 (Candida albicans): 62.5 µg/mL
- MIC50 (Penicillium citrinum): 250 µg/mL
- MIC90 (Penicillium citrinum): 500 µg/mL
- MBC (Streptococcus pyogenes [18]): 15.6 µg/mL
- MIC (Salmonella typhimurium [22]): 1000 µg/mL
- MBC (Acinetobacter baumannii [23]): 1000 µg/mL
- MIC (Enterococcus faecalis [24]): 250 µg/mL
- MIC (Streptococcus pyogenes [28]): 15.6 µg/mL
- MBC (Pseudomonas aeruginosa [29]): 2000 µg/mL
- MIC (Escherichia coli [30]): 250 µg/mL
- MIC (Pseudomonas aeruginosa [31]): 2000 µg/mL
- MBC (Staphylococcus aureus [32]): 125 µg/mL
- MBC (Klebsiella pneumoniae [33]): 1000 µg/mL
- MIC (Klebsiella pneumoniae [34]): 1000 µg/mL
- MBC (Enterococcus faecalis [35]): 250 µg/mL
- MIC (Klebsiella pneumoniae [39]): 1000 µg/mL
- MIC (Acinetobacter baumannii [40]): 500 µg/mL
